# Experimental data taken from patent US20190055279A1, “NOVEL POLYPEPTIDES WITH IMPROVED PROTEOLYTIC STABILITY, AND METHODS OF PREPARING AND USING SAME” (TUFTS UNIVERSITY, priority 2015, published 2019).
# What was measured:
# FAP = biological target: T1, FAP (Homo sapiens, UniProt Q12884)
# T1 sequence (Q12884 1-760): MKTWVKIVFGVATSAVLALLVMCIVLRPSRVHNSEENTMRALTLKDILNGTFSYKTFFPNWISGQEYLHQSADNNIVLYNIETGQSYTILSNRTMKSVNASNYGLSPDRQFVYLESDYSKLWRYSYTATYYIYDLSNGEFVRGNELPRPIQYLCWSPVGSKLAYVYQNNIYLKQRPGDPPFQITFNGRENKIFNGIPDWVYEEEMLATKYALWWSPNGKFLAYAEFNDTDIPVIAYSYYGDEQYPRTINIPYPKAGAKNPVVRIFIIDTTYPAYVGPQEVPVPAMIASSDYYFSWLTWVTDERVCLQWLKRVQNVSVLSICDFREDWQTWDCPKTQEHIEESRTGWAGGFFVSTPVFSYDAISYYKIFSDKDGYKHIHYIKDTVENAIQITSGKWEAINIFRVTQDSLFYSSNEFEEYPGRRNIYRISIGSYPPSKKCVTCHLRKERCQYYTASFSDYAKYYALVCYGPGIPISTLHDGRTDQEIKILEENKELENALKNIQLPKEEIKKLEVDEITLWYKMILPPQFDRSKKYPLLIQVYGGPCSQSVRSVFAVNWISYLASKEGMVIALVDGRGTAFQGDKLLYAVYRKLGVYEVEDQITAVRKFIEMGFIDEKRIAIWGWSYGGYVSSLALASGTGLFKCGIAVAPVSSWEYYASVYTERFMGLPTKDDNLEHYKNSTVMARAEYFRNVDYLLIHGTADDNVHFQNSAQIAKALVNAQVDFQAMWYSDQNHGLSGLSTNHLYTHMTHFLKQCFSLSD
# DPP2 = DPP2 (Homo sapiens, UniProt Q9UHL4)
# wild type mice = conditions: GLP-2 twice daily over ten days; GATTEX daily; cited from earlier work
# DPP4 = DPP4 (Homo sapiens, UniProt P27487)
# Sequence of DPP4 (P27487 whole entry, species assumed): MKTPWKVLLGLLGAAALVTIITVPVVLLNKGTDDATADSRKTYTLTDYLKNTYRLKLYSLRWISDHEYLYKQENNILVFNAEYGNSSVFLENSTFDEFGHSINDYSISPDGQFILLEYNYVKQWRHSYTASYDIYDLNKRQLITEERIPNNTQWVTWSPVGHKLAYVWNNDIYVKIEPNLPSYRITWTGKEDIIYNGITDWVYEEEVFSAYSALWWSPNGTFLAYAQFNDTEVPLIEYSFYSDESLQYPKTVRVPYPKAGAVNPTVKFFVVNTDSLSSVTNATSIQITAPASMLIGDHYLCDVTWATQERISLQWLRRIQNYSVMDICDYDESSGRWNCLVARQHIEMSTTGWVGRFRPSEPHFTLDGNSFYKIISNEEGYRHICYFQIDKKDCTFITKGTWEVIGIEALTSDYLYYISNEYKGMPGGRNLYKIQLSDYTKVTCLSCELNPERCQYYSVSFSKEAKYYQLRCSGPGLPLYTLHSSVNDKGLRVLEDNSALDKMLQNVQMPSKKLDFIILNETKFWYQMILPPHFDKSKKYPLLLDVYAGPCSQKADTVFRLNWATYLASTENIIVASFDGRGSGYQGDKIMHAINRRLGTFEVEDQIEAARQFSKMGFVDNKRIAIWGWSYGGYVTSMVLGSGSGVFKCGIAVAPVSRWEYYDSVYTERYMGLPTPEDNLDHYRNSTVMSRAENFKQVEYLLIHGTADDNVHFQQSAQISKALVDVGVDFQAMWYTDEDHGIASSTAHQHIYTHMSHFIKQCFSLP
# Procedure: Peptides were incubated with vehicle or recombinant DPP4. Serial dilutions of GLP2-1 and GLP2-4 were then applied to HEK293 cells, which had been transfected with cDNA encoding human GLP-2R and a cAMP-responsive reporter gene.
# Peptides were incubated with recombinant DPP4. Serial dilutions of GLP-2 and GLP2-4 were then applied to HEK293 cells, which had been transfected with cDNA encoding human GLP-2R and a cAMP-responsive reporter gene. […] N=4, mean+SEM.
# DPP4 resistance (FIG. 13): Lipidated peptides are compared with the prototype, F-GLP2-palm. After an overnight incubation (16 hrs) in the presence vs. the absence of DPP4, receptor mediated function is assessed as shown elsewhere herein. As a DPP4 susceptible control, parallel experiments are done using GLP-2. […] Following overnight preincubation, serial dilutions of ligands were prepared and added to GLP-2R expressing cells for 4 hours. A luciferase reporter gene assay was used to monitor Gαs coupled second messenger signaling.
# SBS patients = conditions: after 52 weeks of treatment; cited from earlier work
# [1] = cited from earlier work
SMILES,stability to FAP (in words) (FAP),stability to DPP2 (in words) (DPP2),bowel weight (wild type mice),DPP4 degradation / resistance (in words) (DPP4),SBS patients able to reduce their PN regimen by at least 1 day/week (SBS patients) [%],patients who failed to reduce their PN regimen by even 1 day/week (SBS patients) [%],treated patients entirely independent of PN (SBS patients),in vivo half-life [1] [h]
"CC[C@H](C)[C@H](NC(=O)[C@H](CO)NC(=O)[C@H](Cc1ccc(O)cc1)NC(=O)[C@H](CC(=O)O)NC(=O)[C@H](CO)NC(=O)[C@@H](NC(=O)[C@H](Cc1ccccc1)NC(=O)[C@@H](NC(=O)CNC(=O)[C@H](CCC(=O)O)NC(=O)[C@H](C)NC(=O)[C@@H](N)Cc1ccc(O)cc1)[C@@H](C)O)[C@@H](C)CC)C(=O)N[C@@H](C)C(=O)N[C@@H](CCSC)C(=O)N[C@@H](CC(=O)O)C(=O)N[C@@H](CCCCN)C(=O)N[C@H](C(=O)N[C@@H](Cc1c[nH]cn1)C(=O)N[C@@H](CCC(N)=O)C(=O)N[C@@H](CCC(N)=O)C(=O)N[C@@H](CC(=O)O)C(=O)N[C@@H](Cc1ccccc1)C(=O)N[C@H](C(=O)N[C@@H](CC(N)=O)C(=O)N[C@@H](Cc1c[nH]c2ccccc12)C(=O)N[C@@H](CC(C)C)C(=O)N[C@@H](CC(C)C)C(=O)N[C@@H](C)C(=O)N[C@@H](CCC(N)=O)C(=O)N[C@@H](CCCCN)C(=O)NCC(=O)N[C@@H](CCCCN)C(=O)N[C@@H](CCCCN)C(=O)N[C@@H](CC(N)=O)C(=O)N[C@@H](CC(=O)O)C(=O)N[C@@H](Cc1c[nH]c2ccccc12)C(=O)N[C@@H](CCCCN)C(=O)N[C@@H](Cc1c[nH]cn1)C(=O)N[C@@H](CC(N)=O)C(=O)N[C@H](C(=O)N[C@H](C(=O)N[C@@H](CCC(N)=O)C(=O)O)[C@@H](C)O)[C@@H](C)CC)C(C)C)[C@@H](C)CC [GIP, Gastric Inhibitory Polypeptide]",major potency losses,major potency losses,–,–,–,–,–,–
"CC[C@H](C)[C@H](NC(=O)[C@H](Cc1ccccc1)NC(=O)[C@H](CC(=O)O)NC(=O)[C@H](CCCNC(=N)N)NC(=O)[C@H](C)NC(=O)[C@H](C)NC(=O)[C@H](CC(C)C)NC(=O)[C@H](CC(N)=O)NC(=O)[C@H](CC(=O)O)NC(=O)[C@H](CC(C)C)NC(=O)[C@@H](NC(=O)[C@@H](NC(=O)[C@H](CC(N)=O)NC(=O)[C@H](CCSC)NC(=O)[C@H](CCC(=O)O)NC(=O)[C@H](CC(=O)O)NC(=O)[C@H](CO)NC(=O)[C@H](Cc1ccccc1)NC(=O)[C@H](CO)NC(=O)CNC(=O)[C@H](CC(=O)O)NC(=O)CNC(=O)[C@@H](N)Cc1c[nH]cn1)[C@@H](C)O)[C@@H](C)CC)C(=O)N[C@@H](CC(N)=O)C(=O)N[C@@H](Cc1c[nH]c2ccccc12)C(=O)N[C@@H](CC(C)C)C(=O)N[C@H](C(=O)N[C@@H](CCC(N)=O)C(=O)N[C@H](C(=O)N[C@@H](CCCCN)C(=O)N[C@H](C(=O)N[C@H](C(=O)N[C@@H](CC(=O)O)C(=O)O)[C@@H](C)O)[C@@H](C)CC)[C@@H](C)O)[C@@H](C)CC [Gattex, teduglutide]",–,–,significant increase in both large and small bowel weights,only partial DPP4 resistance,68,32,4 of 52,~3
